In PubChem BioAssay (NCI):
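Where inhibition never reached the appropriate level, the endpoint shown equals the highest concentration tested. Otherwise, values were interpolated linearly from a five-concentration, 48-hour dose response in 96-well plates. Here, GI50 denotes the concentration required for 50% inhibition of growth. Definition used: TGI = concentration required for complete inhibition of growth.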

How the values were obtained:
Assay in all cases: DTP human tumour cell line panel, 48 h
NCI/ADR-RES ovarian = system: NCI/ADR-RES ovarian
UACC-257 melanoma = system: UACC-257 melanoma
IGROV1 ovarian = system: IGROV1 ovarian
SK-OV-3 ovarian = system: SK-OV-3 ovarian
NCI-H226 lung = system: NCI-H226 lung
HS 578T breast = system: HS 578T breast
HL-60(TB) leukemia = system: HL-60(TB) leukemia
CCRF-CEM leukemia = system: CCRF-CEM leukemia
UO-31 renal = system: UO-31 renal
COLO 205 colon = system: COLO 205 colon

| Compound | GI50 (NCI/ADR-RES ovarian) | TGI (NCI/ADR-RES ovarian) | TGI (UACC-257 melanoma) | GI50 (IGROV1 ovarian) | TGI (IGROV1 ovarian) | GI50 (SK-OV-3 ovarian) | TGI (SK-OV-3 ovarian) | TGI (NCI-H226 lung) | GI50 (HS 578T breast) | TGI (HS 578T breast) | GI50 (HL-60(TB) leukemia) | TGI (HL-60(TB) leukemia) | GI50 (CCRF-CEM leukemia) | TGI (CCRF-CEM leukemia) | GI50 (UO-31 renal) | TGI (UO-31 renal) | GI50 (COLO 205 colon) | TGI (COLO 205 colon) | GI50 (UACC-257 melanoma) | GI50 (NCI-H226 lung) |
| --- | --- | --- | --- | --- | --- | --- | --- | --- | --- | --- | --- | --- | --- | --- | --- | --- | --- | --- | --- | --- |
| CCn1c(CO)nn(-c2cc(O[C@@H](C)C(F)(F)F)c(C(=O)Nc3c(F)cccc3Cl)cc2F)c1=O | < 0.0245 µM | > 93.5 µM | > 100 µM | < 0.0113 µM | > 100 µM | 3.05 µM | > 100 µM | > 100 µM | > 22.3 µM | > 100 µM | 0.0357 µM | > 46.7 µM | < 0.01 µM | > 100 µM | 1.02 µM | > 100 µM | < 0.01 µM | > 100 µM | – | – |
| O=[N+]([O-])c1ccc2c(c1)C(c1ccccc1Cl)=Nc1cn[nH]c1N2 | 23.1 µM | > 25 µM | > 25 µM | > 23.5 µM | > 25 µM | 12.5 µM | > 25 µM | > 25 µM | 7.76 µM | > 25 µM | 14.4 µM | > 25 µM | 8 µM | > 25 µM | 11.1 µM | > 25 µM | 9.43 µM | > 25 µM | > 25 µM | 11.8 µM |
| O=C(/C=C/c1cc(CN2CCOCC2)c(O)c2ncccc12)c1cc(CN2CCOCC2)c(O)c2ncccc12 | 0.091 µM | > 100 µM | 8.88 µM | 0.0682 µM | > 66.6 µM | 0.0348 µM | 0.357 µM | 41.8 µM | 0.0713 µM | > 100 µM | 0.0309 µM | – | 0.05 µM | > 100 µM | 0.0408 µM | > 100 µM | 0.0842 µM | > 100 µM | 0.202 µM | 0.43 µM |
| Cc1cc(S(=O)(=O)N/N=C(\Sc2cc(Cl)c(C)cc2S(N)(=O)=O)c2ccc(Cl)cc2)c(Cl)cc1Cl | > 100 µM | > 100 µM | > 100 µM | 70.2 µM | > 100 µM | > 100 µM | > 100 µM | > 100 µM | > 100 µM | > 100 µM | 76.4 µM | > 100 µM | 36.8 µM | > 100 µM | 57.1 µM | > 100 µM | > 100 µM | > 100 µM | 44.5 µM | 58.3 µM |
| CC(C)S(=O)(=O)c1ccccc1Nc1nc(Nc2cccc(NC(=O)CN)c2)ncc1Cl | 0.482 µM | 3.6 µM | 6.73 µM | 0.263 µM | 12.6 µM | 1.11 µM | 8.57 µM | 1.98 µM | 0.161 µM | 1.11 µM | 0.103 µM | 0.55 µM | < 0.0355 µM | 4.5 µM | 0.176 µM | 4.08 µM | 0.0319 µM | 0.223 µM | 0.997 µM | 0.113 µM |
